# Experimental data reported in patent US12629370B2, “Treatment of prostate cancer” (Sumitomo Pharma Co., Ltd., priority 2016, dated 2026).
# Key:
# [1] = Example 6: plasma concentration of unchanged Compound 1 (LC-MS/MS); format: in vivo, human
# Experimental: Subjects in Cohort 1 received a load dose of 320 mg and a maintenance dose of 80 mg; subjects in Cohort 2 received a load dose of 320 mg and a maintenance dose of 120 mg; subjects in Cohort 3 received a load dose of 320 mg and a maintenance dose of 160 mg; and subjects in Cohort 4 received a load dose of 360 mg and a maintenance dose of 120 mg.
# In addition to the safety assessments, efficacy assessments were also performed according to the study schedule, and the Compound 1 formulation was administered until each subject met the discontinuation criteria.
# [2] = tested on: serum FSH; experiment: Example 7: serum FSH in healthy men; format: in vivo, human
# Experimental: FSH, DHT, and insulin-like growth factor 1 (IGF-1; Parts 3 and 4 only) were measured in a subset of samples. Serum testosterone was assayed using a conventional immunoassay for screening (LLOQ=0.4 nmol/L). A validated LC/MS/MS method, with an LLOQ of 0.173 nmol/L and a ULOQ of 10.425 nmol/L, was used for all subsequent baseline (i.e., the subject's serum hormone levels prior to treatment commencing) and postdose measurements.
# [3] = tested on: FSH; experiment: Example 8: FSH levels; format: in vivo, human;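 further: FSH determined at every study visit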
# [4] = tested on: PSA; experiment: Example 8: PSA response; format: in vivo, human
# Description: Eligible men were aged ≥18 years with a histologically confirmed diagnosis of prostate adenocarcinoma, and were candidates for ADT for the management of hormone-sensitive prostate cancer with one of the following clinical disease states: advanced localized disease not suitable for primary surgical or radiation therapy; evidence of PSA biochemical or clinical relapse following primary surgery or radiation therapy of curative intent; or newly diagnosed metastatic disease that was asymptomatic and without visceral involvement. Additional inclusion criteria at screening included: eugonadal serum testosterone >150 ng/dl (5.2 nmol/L); serum PSA concentration >2 ng/ml (or, when applicable, >0.2 ng/ml following radical prostatectomy or >2 ng/mL above the post-radiotherapy nadir following radiotherapy); body mass index ≥18.0 at screening and/or baseline (i.e., the subject's BMI prior to treatment commencing); and Eastern Cooperative Oncology Group (ECOG) performance status of 0 or 1. Patients with advanced, localized MON1 or M1 disease with clinically significant symptoms or visceral involvement, who required immediate GnRH therapy, chemotherapy, or radiation therapy were not eligible for the trial.
# PSA levels were measured at each visit.
# [5] = tested on: patients with advanced prostate cancer; experiment: Example 8: treatment-emergent adverse events (safety population)
# Experimental: The core tablets were coated with a film coating comprising hypromellose 2910 (21.36 mg), titanium dioxide (2.4 mg), and red ferric oxide (0.06 mg).
# For patients receiving leuprolide acetate (leuprorelin), on-treatment study visits occurred at baseline (day 1, week 1), day 1 of weeks 2, 3, and 5, and then every 4 weeks until week 25, and then at 12 week intervals (week 37 and 49). Patients on leuprorelin received their final injection at week 37, day 1, and the week 49, day 1 visit was considered the end of leuprorelin exposure. Patients receiving leuprorelin at visits at 16 (EOT), 20 (follow-up visit), and 24 (EOS) weeks after the last leuprorelin injection.
# Efficacy and safety analyses were conducted using a safety population (received ≥1 dose of study drug). […] Safety was assessed by recording the incidence, severity, and types of treatment-emergent adverse events; by physical examination (including slit lamp examination of the anterior eye); and by evaluating changes from baseline in weight, vital signs, 12-lead electrocardiogram (ECG), and clinical laboratory parameters. […] Adverse events were coded using the Medical Dictionary for Regulatory Activities version 19.0 and graded according to National Cancer Institute Common Terminology Criteria version 4.03 (Tables 7 and 8). Safety-related haematology, chemistry, and urinalysis measurements were taken at each study visit and analysed at a central laboratory (LabCorp). Phospholipidosis was assessed as part of the safety assessments.
# [6] = tested on: serum LH, FSH, DHT and SHBG; experiment: Example 6: serum LH, FSH, DHT and SHBG; format: in vivo, human; details: for serum LH, FSH and DHT concentrations: all dose levels
# [7] = Compound 1 Total, Week 2, Day 1
# [8] = Compound 1 Total, Week 5, Day 1
# [9] = Compound 1 Total, Week 13, Day 1
# [10] = Compound 1 Total, Week 25, Day 1
# [11] = Compound 1 Total, Week 49, Day 1
structure (smiles),measurement,setting,value
"CONC(=O)Nc1ccc(-c2sc3c(c2CN(C)C)c(=O)n(-c2ccc(OC)nn2)c(=O)n3Cc2c(F)cccc2F)cc1 [Compound 1, N-(4-(1-(2,6-difluorobenzyl)-5-((dimethylamino)methyl)-3-(6-methoxy-3-pyridazinyl)-2,4-dioxo-1,2,3,4-tetrahydrothieno[2,3-d]pyrimidin-6-yl)phenyl)-N′-methoxyurea]",median Tmax,"[1]; Part A Day 1, load dose 320 mg, across cohorts",1.5 h
same,"mean Cmax, Ctrough and mean plasma AUC24 versus dose","[1]; Part A Days 14 and 28, 80 to 160 mg QD",generally increased proportionately with dose
same,median Tmax,"[1]; Part A Days 14 and 28, maintenance 80 to 160 mg QD",0.5 to 2.0 h
same,Tmax,"[1]; male, human, plasma, oral, Part A Day 1, load dose 320 mg, across cohorts, read-out: median Tmax",1 h
same,half-life,"[1]; male, human, plasma, oral, Part A Day 28, across cohorts, read-out: mean plasma T1/2",66.5 to 78.1 h
same,time postdose at which mean serum FSH began to decrease,[2]; Part 1 single doses 80-360 mg,2 h
same,time postdose of lowest mean serum FSH,[2]; Part 1 single doses 80-360 mg,48 h
same,mean serum FSH at end of 16 days,"[2]; Part 2, 80 mg, baseline 6.07 IU/L",0.67 IU/L
same,mean serum FSH at end of 16 days,"[2]; Part 2, 180 mg, baseline 3.88 IU/L",0.33 IU/L
same,FSH Mean (Std Dev),"[3]; 80 mg QD, Baseline",14.729 (14.3473) IU/L
same,FSH Median,"[3]; 80 mg QD, Baseline",9.550 IU/L
same,FSH Mean (Std Dev),"[3]; 80 mg QD, Week 2, Day 1",3.112 (3.0612) IU/L
same,FSH Median,"[3]; 80 mg QD, Week 2, Day 1",2.100 IU/L
same,FSH Mean (Std Dev),"[3]; 80 mg QD, Week 5, Day 1",1.248 (2.6737) IU/L
same,FSH Median,"[3]; 80 mg QD, Week 5, Day 1",0.400 IU/L
same,FSH Mean (Std Dev),"[3]; 80 mg QD, Week 13, Day 1",1.137 (2.4242) IU/L
same,FSH Median,"[3]; 80 mg QD, Week 13, Day 1",0.500 IU/L
same,FSH Mean (Std Dev),"[3]; 80 mg QD, Week 25, Day 1",1.090 (0.9932) IU/L
same,FSH Median,"[3]; 80 mg QD, Week 25, Day 1",0.800 IU/L
same,FSH Mean (Std Dev),"[3]; 80 mg QD, Week 49, Day 1",1.802 (1.3956) IU/L
same,FSH Median,"[3]; 80 mg QD, Week 49, Day 1",1.450 IU/L
same,FSH Median,"[3]; 120 mg QD, Baseline",11.050 IU/L
same,FSH Mean (Std Dev),"[3]; 120 mg QD, Week 2, Day 1",3.183 (2.8956) IU/L
same,FSH Median,"[3]; 120 mg QD, Week 2, Day 1",2.300 IU/L
same,FSH Mean (Std Dev),"[3]; 120 mg QD, Week 5, Day 1",1.035 (1.0479) IU/L
same,FSH Median,"[3]; 120 mg QD, Week 5, Day 1",0.600 IU/L
same,FSH Mean (Std Dev),"[3]; 120 mg QD, Week 13, Day 1",0.908 (0.8104) IU/L
same,FSH Median,"[3]; 120 mg QD, Week 13, Day 1",0.600 IU/L
same,FSH Mean (Std Dev),"[3]; 120 mg QD, Week 25, Day 1",1.344 (0.9675) IU/L
same,FSH Median,"[3]; 120 mg QD, Week 25, Day 1",1.200 IU/L
same,FSH Mean (Std Dev),"[3]; 120 mg QD, Week 49, Day 1",1.938 (1.2169) IU/L
same,FSH Median,"[3]; 120 mg QD, Week 49, Day 1",1.600 IU/L
same,FSH range over the course of 48 weeks,"[3]; 120 mg dose, >10 mIU/mL at baseline",0.6-1.6 mIU/mL
same,FSH Mean (Std Dev),"[3]; Compound 1 Total, Baseline",15.269 (13.5920) IU/L
same,FSH Median,"[3]; Compound 1 Total, Baseline",9.850 IU/L
same,FSH Mean (Std Dev),[3]; [7],3.147 (2.9653) IU/L
same,FSH Median,[3]; [7],2.150 IU/L
same,FSH Mean (Std Dev),[3]; [8],1.143 (2.0379) IU/L
same,FSH Median,[3]; [8],0.550 IU/L
same,FSH Mean (Std Dev),[3]; [9],1.025 (1.8164) IU/L
same,FSH Median,[3]; [9],0.500 IU/L
same,FSH Mean (Std Dev),[3]; [10],1.215 (0.9838) IU/L
same,FSH Median,[3]; [10],0.900 IU/L
same,FSH Mean (Std Dev),[3]; [11],1.867 (1.3077) IU/L
same,FSH Median,[3]; [11],1.500 IU/L
same,median FSH,[3]; after 48 weeks of treatment,1.62 mIU/mL
same,Median time from first dose to PSA nadir,[4]; 80 mg QD,16.1 Weeks
same,Median time from first dose to PSA nadir,[4]; 120 mg QD,12.3 Weeks
same,patients with ≥50% serum PSA reduction,[4]; after 4 weeks of treatment,Eighty-three percent
same,patients with ≥90% serum PSA reduction,[4]; after 4 weeks of treatment,Eight percent
same,average PSA level,[4]; by Week 13 Day 1 visit,less than 0.4 ng/ml
same,average PSA level,[4]; by Week 21 Day 1 visit,less than 0.2 ng/ml
same,PSA % responses in most patients,[4]; end of 24 weeks dosing,exceed 90%
same,PSA response following initiation of treatment compared with leuprorelin,[4]; in vivo,more rapid
same,"Acute coronary syndrome, Grade ≥3",[5]; 80 mg QD,0 n (%)
same,Death (Table 7),[5]; 80 mg QD,1 (2) n (%)
same,"Death, Grade ≥3 (Table 8)",[5]; 80 mg QD,0 n (%)
same,"Sudden death, Grade ≥3",[5]; 80 mg QD,0 n (%)
same,"Acute coronary syndrome, Grade ≥3",[5]; 120 mg QD,1 (2) n (%)
same,Death (Table 7),[5]; 120 mg QD,0 (0) n (%)
same,"Death, Grade ≥3 (Table 8)",[5]; 120 mg QD,1 (2) n (%)
same,"Sudden death, Grade ≥3",[5]; 120 mg QD,1 (2) n (%)
same,overall safety profile,[5]; in vivo,appeared similar to that seen in the smaller observational leuprorelin cohort
same,"serum SHBG, baseline versus postdose",[6]; Part A,no particular changes
same,"serum LH, FSH and DHT concentrations",[6]; Part A,rapidly suppressed
same,"serum SHBG, baseline versus postdose",[6]; Part B,no particular changes
same,"serum LH, FSH and DHT concentrations",[6]; Part B,rapidly suppressed
